Assay results taken from patent publication US10391095B2, “DNA-PK inhibitors” (Vertex Pharmaceuticals Incorporated, priority 2012, dated 2019).

biological target: DNA-PK (Homo sapiens, UniProt P78527); assay: DNA-PK inhibition assay (radiometric, 33P-ATP); format: biochemical; settings: 100 μM ATP, competitive tight-binding fit
Outline: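 33P transfer from 100 µM ATP to a DNA-PK peptide (0.8 mg/mL) is measured after 45 min, using about 6 nM enzyme activated by 10 µg/mL sheared dsDNA (HEPES pH 7.5, MgCl2, DTT). Filter-bound counts fitted to a competitive tight-binding inhibition model give Ki.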

Compound | Ki [µM]
Cc1ccc(-c2cc(NCC(C)c3ccc(F)cc3OC3CC3)ncn2)cn1 (centres unmarked) [Compound 270] | < 0.03
CC(CNc1cc(-c2ccc(N3CCN(C)CC3)nc2)ncn1)c1ccc(F)cc1OC1CC1 (centres unmarked) [Compound 271] | < 0.03
CNC(=O)c1ccc(C(C)CNc2cc(-c3ccc4c(c3)c(C)nn4CCO)ncn2)c(OC)c1 (centres unmarked) [Compound 272] | < 0.03
CC(CNc1cc(-c2cnc3c(cnn3CCO)c2)ncn1)c1ccc(F)cc1OC1CC1 (centres unmarked) [Compound 275] | < 0.03
CNC(=O)c1ccc(C(C)CNc2cc(-c3ccc4c(cnn4CCO)c3C)ncn2)c(OC)c1 (centres unmarked) [Compound 277] | < 0.03
CNC(=O)c1ccc(C(C)CNc2cc(-c3ccc4c(cnn4C4COC4)c3C)ncn2)c(OC)c1 (centres unmarked) [Compound 278] | < 0.03
CNC(=O)c1ccc(C(C)CNc2cc(-c3ccc4c(c3)c(C)nn4C3COC3)ncn2)c(OC)c1 (centres unmarked) [Compound 279] | < 0.03
CNC(=O)c1ccc(C(C)CNc2cc(-c3cc4cnn(C5COC5)c4cc3C)ncn2)c(OC)c1 (centres unmarked) [Compound 283] | < 0.03
Cc1ccc(-c2cc(NCC(C)c3ccncc3OC3CC3)ncn2)cn1 (centres unmarked) [Compound 287] | < 0.03
Cc1ccc(-c2cc(NCC(C)c3ccnc4c3OCC4)ncn2)cn1 (centres unmarked) [Compound 289] | < 0.03
COc1ccc(N)cc1C(C)CNc1cc(-c2ccc(C)nc2)ncn1 (centres unmarked) [Compound 290] | < 0.03
CNC(=O)c1ccc([C@H](C)CNc2cc(-c3ccc4c(cnn4CC4CC4)c3)ncn2)c(OC)c1 [Compound 294] | < 0.03
Cc1ccc(-c2cc(NCC(C)c3cncnc3OC3CCC3)ncn2)cn1 (centres unmarked) [Compound 299] | < 0.03
Cc1ccc(-c2cc(NCC(C)c3ccc(F)c4cccnc34)ncn2)cn1 (centres unmarked) [Compound 303] | < 0.03
CNC(=O)c1ccc([C@H](C)CNc2cc(-c3ccc(C(=O)N4CCN(C)CC4)cc3)ncn2)c(OC)c1 [Compound 309] | < 0.03
CNC(=O)c1ccc([C@H](C)CNc2cc(-c3ccc4c(c3)CC(=O)N4)ncn2)c(OC)c1 [Compound 310] | < 0.03
CNC(=O)c1ccc([C@H](C)CNc2cc(-c3ccc4c(c3)NC(=O)C4)ncn2)c(OC)c1 [Compound 311] | < 0.03
CNC(=O)c1ccc([C@H](C)CNc2cc(-c3ccc(N4CCCC4=O)cc3)ncn2)c(OC)c1 [Compound 313] | < 0.03
CNC(=O)c1ccc([C@H](C)CNc2cc(-c3ccc4c(c3)OCC(=O)N4)ncn2)c(OC)c1 [Compound 314] | < 0.03
CNC(=O)c1ccc([C@H](C)CNc2cc(-c3ccc(C(=O)NC4CC4)cc3)ncn2)c(OC)c1 [Compound 318] | < 0.03
Cc1ccc(-c2cc(NCC(C)c3ccnc4cccnc34)ncn2)cn1 (centres unmarked) [Compound 331] | < 0.03
Cc1ccc(-c2cc(NCC(C)c3cccc4nccnc34)ncn2)cn1 (centres unmarked) [Compound 332] | < 0.03
Cc1ccc(-c2cc(NCC(C)c3cccc4scnc34)ncn2)cn1 (centres unmarked) [Compound 333] | < 0.03
CNC(=O)c1ccc(C(C)CNc2cc(-c3ccc(C4(CO)CC4)cc3)ncn2)c(OC)c1 (centres unmarked) [Compound 338] | < 0.03
COc1cc(N)ncc1C(C)CNc1cc(-c2ccc(N3CCN(C(C)=O)CC3)nc2)ncn1 (centres unmarked) [Compound 345] | < 0.03
Cc1ccc(-c2cc(NCC(C)c3cccc4cc(F)cnc34)ncn2)cn1 (centres unmarked) [Compound 346] | < 0.03

Further lines, results first:

Ki [µM] | Compound
< 0.03 | CNC(=O)c1ccc([C@H](C)CNc2cc(-c3cnc4c(ccn4CCO)c3)ncn2)c(OC)c1 [Compound 269]
< 0.03 | CNC(=O)c1ccc(C(C)CNc2cc(-c3cnc4c(cnn4CC(=O)OC)c3)ncn2)c(OC)c1 (centres unmarked) [Compound 273]
< 0.03 | CNC(=O)c1ccc(C(C)CNc2cc(-c3cnc4c(cnn4CC(C)(C)O)c3)ncn2)c(OC)c1 (centres unmarked) [Compound 274]
< 0.03 | CCOC(=O)C(C)(C)n1ncc2cc(-c3cc(NCC(C)c4ccc(C(=O)NC)cc4OC)ncn3)cnc21 (centres unmarked) [Compound 276]
< 0.03 | CNC(=O)c1ccc(C(C)CNc2cc(-c3cnc4c(cnn4C(C)(C)C(=O)O)c3)ncn2)c(OC)c1 (centres unmarked) [Compound 284]
< 0.03 | CNC(=O)c1ccc([C@H](C)CNc2cc(-c3cnc4c(cnn4CC(C)(C)O)c3)ncn2)c(OC)c1 [Compound 285]
< 0.03 | CNC(=O)c1ccc([C@H](C)CNc2cc(-c3cnc4c(cnn4C4CCN(C)CC4)c3)ncn2)c(OC)c1 [Compound 286]
< 0.03 | CNC(=O)c1ccc([C@H](C)CNc2cc(-c3ccc4c(cnn4C)c3)ncn2)c(OC)c1 [Compound 293]
< 0.03 | COc1cc(C(=O)NCC(F)F)ccc1C(C)CNc1cc(-c2ccc(C)nc2)ncn1 (centres unmarked) [Compound 296]
< 0.03 | CNC(=O)c1ccc([C@H](C)CNc2cc(-c3cnc(NC)nc3)ncn2)c(OC)c1 [Compound 304]
< 0.03 | CNC(=O)c1ccc(C(C)CNc2cc(-c3ccc(OC4COC4)nc3)ncn2)c(OC)c1 (centres unmarked) [Compound 307]
< 0.03 | CNC(=O)c1ccc([C@H](C)CNc2cc(-c3cnc(C)nc3)ncn2)c(OC)c1 [Compound 308]
< 0.03 | CNC(=O)c1ccc([C@H](C)CNc2cc(-c3ccc4c(c3)CNC4=O)ncn2)c(OC)c1 [Compound 312]
< 0.03 | CNC(=O)c1ccc([C@H](C)CNc2cc(-c3ccc4[nH]c(=O)[nH]c4c3)ncn2)c(OC)c1 [Compound 315]
< 0.03 | CNC(=O)c1ccc([C@H](C)CNc2cc(-c3ccc4scnc4c3)ncn2)c(OC)c1 [Compound 316]
< 0.03 | CNC(=O)c1ccc([C@H](C)CNc2cc(-c3ccc(NC(C)=O)cc3)ncn2)c(OC)c1 [Compound 317]
< 0.03 | CNC(=O)c1ccc([C@H](C)CNc2cc(-c3ccc(C(C)=O)cc3)ncn2)c(OC)c1 [Compound 319]
< 0.03 | CNC(=O)c1ccc(C(C)CNc2cc(-c3ccc(OC)nc3)ncn2)c(OC)c1 (centres unmarked) [Compound 320]
< 0.03 | CNC(=O)c1ccc(C(C)CNc2cc(-c3ccc(OCC4CCC4)nc3)ncn2)c(OC)c1 (centres unmarked) [Compound 321]
< 0.03 | CCOc1ccc(-c2cc(NCC(C)c3ccc(C(=O)NC)cc3OC)ncn2)cn1 (centres unmarked) [Compound 322]
< 0.03 | CNC(=O)c1ccc(C(C)CNc2cc(-c3ccc(OCCSC)nc3)ncn2)c(OC)c1 (centres unmarked) [Compound 323]
< 0.03 | CNC(=O)c1ccc(C(C)CNc2cc(-c3ccc(OC(C)C)nc3)ncn2)c(OC)c1 (centres unmarked) [Compound 324]
< 0.03 | CNC(=O)c1ccc(C(C)CNc2cc(-c3ccc(OCCS(C)(=O)=O)nc3)ncn2)c(OC)c1 (centres unmarked) [Compound 325]
< 0.03 | CNC(=O)c1ccc(C(C)CNc2cc(-c3ccc(OCC4CC4)nc3)ncn2)c(OC)c1 (centres unmarked) [Compound 326]
< 0.03 | CNC(=O)c1ccc(C(C)CNc2cc(-c3ccc(OC4CN(C(C)=O)C4)nc3)ncn2)c(OC)c1 (centres unmarked) [Compound 327]
< 0.03 | CNC(=O)c1ccc([C@H](C)CNc2cc(-c3ccc(F)nc3)ncn2)c(OC)c1 [Compound 328]
< 0.03 | CNC(=O)c1ccc(C(C)CNc2cc(-c3ccc(CCO)cc3)ncn2)c(OC)c1 (centres unmarked) [Compound 339]
< 0.03 | CNC(=O)c1ccc(C(C)CNc2cc(-c3ccc(CCOC)cc3)ncn2)c(OC)c1 (centres unmarked) [Compound 340]
< 0.03 | CNC(=O)c1ccc([C@H](C)CNc2cc(-c3ccc(N(C)C(C)C4CC4)nc3)ncn2)c(OC)c1 (some centres unmarked) [Compound 341]
< 0.03 | CNC(=O)c1ccc([C@H](C)CNc2cc(-c3ccc4c(c3)CCN4C)ncn2)c(OC)c1 [Compound 342]
